Patent publication US20120010177A1, “MicroRNA Modulators and Method for Identifying And Using The Same” (The Wistar Institute / North Carolina State University, priority 2008, published 2012)

The compounds below were run on miR-21 (assay: High throughput primary miR-21 FLuc reporter assay (concentration-response)). Settings: HeLa Luc-miR-21 reporter, 48-hour incubation; read-out: AC50.
Type: cell-based, human
Protocol: Primary miR-21 Assay. The primary miR-21 FLuc reporter assay is carried out with HeLa cells expressing the Luc-miR-21 reporter using a 48-hour incubation time. Active compounds that increase the luciferase response are identified based upon inhibition of miR-21.
SAR. The concentration-response data for the entire high throughput screen is plotted and modeled by a four parameter logistic fit and SAR analysis is performed according to conventional approaches (Iglese, et al. (2006) Proc. Natl. Acad. Sci. USA […]:11473-8). In brief, Class 1.1 and 1.2 are full curves containing upper and lower asymptotes with efficacy ≧80% and <80%, respectively. Class 2.1 and 2.2 are incomplete curves having only one asymptote with efficacy ≧80% and <80%, respectively. Class 3 curves show activity at only the highest concentration or are poorly fit. […] For SAR analysis, compounds associated with Class 1 and 2.1 curves are clustered using LEADSCOPE® fingerprints. […] Compounds sharing a common scaffold form a series. Candidate series and singletons are chosen for follow up studies. For each lead or series, an appropriate library design method (e.g., point substitution library or matrix library) is selected. Typically, precursors are synthesized and a library of 15-25 compounds is produced for analysis in the above-described assays.

| Structure (SMILES) | AC50 |
| --- | --- |
| Cc1ccc(C)c(-n2nnc(-c3nc(-c4ccc(Cl)cc4)no3)c2N)c1 [Compound 55] | 1.85 µM |
| COC(=O)/C(=C/c1cccc([N+](=O)[O-])c1)NC(=O)c1ccc(OC)cc1 [Compound 89] | 5.21 µM |

Same assay, conditions: Homo sapiens, HeLa, 48 h, HeLa Luc-miR-21 reporter, 48-hour incubation; read-out: AC50

| Structure (SMILES) | AC50 |
| --- | --- |
| Cc1cccc(-n2nnc(-c3nc(-c4cccs4)no3)c2N)c1C [Compound 9] | 0.09 µM |
| Nc1c(-c2nc(-c3cccs3)no2)nnn1-c1cccc(F)c1 [Compound 10] | 0.21 µM |
| Cc1cccc(-n2nnc(-c3nc(-c4cccs4)no3)c2N)c1 [Compound 11] | 0.33 µM |
| Nc1c(-c2nc(-c3ccccc3Cl)no2)nnn1-c1ccccc1F [Compound 12] | 0.83 µM |
| COc1cccc(-n2nnc(-c3nc(-c4cccs4)no3)c2N)c1 [Compound 13] | 1.04 µM |
| Cc1ccc(-n2nnc(-c3nc(-c4cccs4)no3)c2N)cc1C [Compound 14] | 1.65 µM |
| CCc1ccc(-n2nnc(-c3nc(-c4cccs4)no3)c2N)cc1 [Compound 15] | 1.17 µM |
| COc1ccc(C)cc1-n1nnc(-c2nc(-c3ccccc3Cl)no2)c1N [Compound 16] | 4.65 µM |
| COc1ccc(-n2nnc(-c3nc(-c4cccs4)no3)c2N)cc1 [Compound 17] | 0.58 µM |
| COc1ccc(-c2noc(-c3nnn(-c4cc(C)ccc4C)c3N)n2)cc1 [Compound 18] | 1.47 µM |
| CCc1cccc(-n2nnc(-c3nc(-c4cccs4)no3)c2N)c1 [Compound 19] | 1.65 µM |
| Cc1cccc(-n2nnc(-c3nc(-c4ccccc4)no3)c2N)c1C [Compound 20] | 1.85 µM |
| Cc1ccc(C)c(-n2nnc(-c3nc(-c4ccc(Cl)cc4)no3)c2N)c1 [Compound 21] | 1.31 µM |
| Nc1c(-c2nc(-c3cccs3)no2)nnn1-c1ccccc1Cl [Compound 22] | 0.09 µM |
| CCOc1ccccc1-n1nnc(-c2nc(-c3ccccc3)no2)c1N [Compound 23] | 3.69 µM |
| COc1cccc(NC(=O)Cn2nnc(-c3nc(-c4ccccc4)no3)c2N)c1 [Compound 24] | 10.4 µM |
| Nc1c(-c2nc(-c3cccs3)no2)nnn1-c1cccc(Cl)c1 [Compound 25] | 4.14 µM |
| CCc1cccc(-n2nnc(-c3nc(-c4ccccc4Cl)no3)c2N)c1 [Compound 26] | 16.5 µM |
| Cc1ccc(-c2noc(-c3nnn(CC(=O)Nc4cccc(C(F)(F)F)c4)c3N)n2)cc1 [Compound 27] | 0.74 µM |
| O=c1ccc2ccc(OCc3nnc(-c4ccccc4Br)o3)cc2o1 [Compound 28] | 11.7 µM |
| Cc1ccc(CNc2nc(-c3ccco3)nn2S(C)(=O)=O)cc1 [Compound 29] | 0.58 µM |
| Cc1ccc(CNc2nc3nc(C)c(Cl)c(C)n3n2)cc1 [Compound 30] | 1.31 µM |

| Structure (SMILES) | AC50 |
| --- | --- |
| CC(C)c1ccc(CNc2nc(-c3ccco3)nn2C(=O)c2ccc([N+](=O)[O-])cc2)cc1 [Compound 31] | 2.07 µM |
| COc1ccc(CNc2nc(-c3ccco3)nn2C(=O)CC(C)C)cc1 [Compound 32] | 5.85 µM |
| CN(C)c1ccc(CNc2nc(-c3ccco3)nn2S(C)(=O)=O)cc1 [Compound 33] | 7.36 µM |
| O=C(c1ccc([N+](=O)[O-])cc1)n1nc(-c2ccccc2)nc1NCc1ccccc1 [Compound 34] | 8.26 µM |
| COc1ccccc1C(=O)n1nc(-c2ccco2)nc1NCc1ccc(Cl)cc1 [Compound 35] | 14.7 µM |
| O=C(c1ccc(Cl)cc1)n1nc(-c2ccccc2)nc1NCc1ccco1 [Compound 36] | 14.7 µM |
| Cc1ccc(-c2nc(NCc3ccco3)n(S(C)(=O)=O)n2)cc1 [Compound 37] | 14.7 µM |
| COc1ccc(CNc2nc(-c3ccccc3)nn2C(=O)c2ccc([N+](=O)[O-])cc2)cc1 [Compound 38] | 14.7 µM |
| COCC(=O)n1nc(-c2ccco2)nc1NCc1ccccc1Cl [Compound 39] | 16.5 µM |
| O=C(c1cccc([N+](=O)[O-])c1)n1nc(-c2ccccc2)nc1NCc1ccccc1 [Compound 40] | 16.5 µM |
| CCS(=O)(=O)n1nc(-c2ccccc2)nc1NCc1ccco1 [Compound 41] | 18.5 µM |
| CC(=O)n1nc(-c2ccccc2)nc1NCc1cccs1 [Compound 42] | 18.5 µM |
| CC(=O)c1cnc2nc(SCc3ccccc3)nn2c1C [Compound 43] | 5.21 µM |
| c1ccc(CSc2nnc3ccc(-c4cccs4)nn23)nc1 [Compound 44] | 7.36 µM |
| Cc1cc(C)n2nc(SCCOc3ccccc3)nc2n1 [Compound 45] | 7.36 µM |
| Fc1cccc(Cl)c1CSc1nnc2ccccn12 [Compound 46] | 10.4 µM |
| Cc1cc(C)n2nc(SCCOc3ccccc3F)nc2n1 [Compound 47] | 11.7 µM |
| COc1ccc(-c2nc(SCc3ccccc3)n(S(C)(=O)=O)n2)cc1 [Compound 48] | 13.1 µM |
| Cc1ccccc1OCCSc1nnc(C)n1-c1ccccc1 [Compound 50] | 14.7 µM |
| Brc1ccc(CSc2nnc3ccccn23)cc1 [Compound 51] | 16.5 µM |
| Cc1cc(C)n2c(SCc3ccccc3Cl)nnc2n1 [Compound 52] | 16.5 µM |
| O=C(CCc1ccccc1)n1nc(-c2ccco2)nc1SCc1ccccc1 [Compound 53] | 18.5 µM |

| Structure (SMILES) | AC50 |
| --- | --- |
| Fc1ccccc1CSc1nnc(-c2cnccn2)n1Cc1ccco1 [Compound 54] | 20.8 µM |
| COc1ccc(-c2nn3c(C4CCCCC4)nnc3s2)cc1OC [Compound 56] | 3.29 µM |
| COc1cccc(OC)c1-c1nn2c(-c3ccco3)nnc2s1 [Compound 57] | 11.7 µM |
| COCCNC(=O)C(c1cccnc1)N(Cc1ccccc1)C(=O)Cn1nnc2ccccc21 (stereo not shown) [Compound 58] | 13.1 µM |
| COc1nc(NCCO)nc(Nc2ccccc2F)n1 [Compound 59] | 4.65 µM |
| Cc1nnc(SCc2nc(N)nc(Nc3ccccc3)n2)s1 [Compound 60] | 11.7 µM |
| Cc1ccc(Nc2ncnc(N)n2)cc1C [Compound 61] | 13.1 µM |
| Nc1nc(CSCc2ccccc2)nc(N2CCOCC2)n1 [Compound 62] | 14.7 µM |
| COc1nc(Nc2cccc(C(F)(F)F)c2)nc(OC)n1 [Compound 63] | 14.7 µM |
| Cc1ccccc1Nc1nc(N)nc(CSc2nnc3ccccn23)n1 [Compound 64] | 16.5 µM |
| Nc1ncnc(Nc2ccc(F)c(Cl)c2)n1 [Compound 65] | 16.5 µM |
| COc1ccc(Nc2nc(N)nc(CSc3nccc(C)n3)n2)cc1 [Compound 66] | 16.5 µM |
| Nc1nc(Nc2ccccc2)nc(C(F)(F)F)n1 [Compound 67] | 16.5 µM |
| Cc1c(Cl)cccc1Nc1nc(N)nc(CSC(=S)N2CCOCC2)n1 [Compound 68] | 18.5 µM |
| Cc1ccccc1Nc1nc(N)nc(CCC(=O)c2ccc(O)cc2)n1 [Compound 69] | 18.5 µM |
| COc1ccccc1Nc1nc(N)nc(CSc2nc(C)cc(C)n2)n1 [Compound 70] | 18.5 µM |
| Cc1ccccc1Nc1nc(N)nc(CN(C)c2ccccc2)n1 [Compound 71] | 18.5 µM |
| CCc1ccc2oc(C(=O)Nc3nonc3CC)c(C)c2c1 [Compound 72] | 2.93 µM |
| CCc1nonc1NC(=O)c1oc2ccc(C)cc2c1C [Compound 73] | 5.85 µM |
| CCc1nonc1NC(=O)c1oc2cc(C)c(C)cc2c1C [Compound 74] | 5.85 µM |
| Cc1c(C(=O)N(C)C(C)c2ccccn2)oc2c(F)cccc12 (stereo not shown) [Compound 75] | 13.1 µM |
| COCC1CCN(C(=O)c2oc3c(F)cccc3c2C)C1 (stereo not shown) [Compound 76] | 13.1 µM |

| Structure (SMILES) | AC50 |
| --- | --- |
| Cc1ccc2c(C)c(C(=O)N(C)C(C)c3ccncn3)oc2c1C (stereo not shown) [Compound 77] | 13.1 µM |
| Cc1cc(Cl)c2oc(C(=O)N(CCO)Cc3ccccc3)c(C)c2c1 [Compound 78] | 14.7 µM |
| CCc1nonc1NC(=O)c1oc2ccccc2c1C [Compound 79] | 14.7 µM |
| Cc1cc(Cl)c2oc(C(=O)N[C@H]3CC[C@H](O)CC3)c(C)c2c1 [Compound 80] | 16.5 µM |
| Cc1cc(C)c2c(N)c(C(=O)Nc3ccccc3F)sc2n1 [Compound 81] | 1.47 µM |
| Nc1c(C(=O)Nc2ccccc2Br)sc2nc(-c3cccs3)ccc12 [Compound 82] | 7.36 µM |
| Cc1cc(C)c2c(N)c(C(=O)Nc3ccccc3C(F)(F)F)sc2n1 [Compound 83] | 8.26 µM |
| Nc1c(C(=O)Nc2cc(F)ccc2F)sc2nc(-c3cccc(O)c3)ccc12 [Compound 84] | 11.7 µM |
| Nc1c(C(=O)Nc2ccc(S(=O)(=O)N3CCCC3)cc2)sc2nc3cc4c(cc3cc12)CCC4 [Compound 85] | 13.1 µM |
| COCc1cc(C)nc2sc(C(=O)Nc3ccccc3O)c(N)c12 [Compound 86] | 13.1 µM |
| Nc1c(C(=O)Nc2ccc(Cl)cc2F)sc2nc(-c3cccs3)ccc12 [Compound 87] | 16.5 µM |
| CC(C)COc1ccc(C(=O)Nc2cc(-c3ccccc3)no2)cc1 [Compound 88] | 4.65 µM |
| COc1cccc(C(=O)NCCC2=CCCCC2)c1OC [Compound 90] | 5.85 µM |
| O=C(Nc1ccc(-c2nc3ccccc3[nH]2)cc1)c1ccc2c(c1)OCO2 [Compound 91] | 6.56 µM |
| COc1ccc(C(=O)Nc2nnc(C(C)C)s2)cc1OC [Compound 92] | 7.36 µM |
| CCn1nnc2cc(C(=O)Nc3ccc(OC)cc3)ccc21 [Compound 93] | 11.7 µM |
| CC(C)C(=O)Nc1nc2c(s1)CC(C(C)(C)C)CC2 (stereo not shown) [Compound 94] | 2.07 µM |
| CC(C)(C)C1CCc2nc(NC(=O)Cc3cn4ccsc4n3)sc2C1 (stereo not shown) [Compound 95] | 8.26 µM |
| O=C(CCc1ccccc1)Nc1cccnc1Cl [Compound 96] | 13.1 µM |
| CC(=O)Nc1nc2c(C)cc(NC(=O)C3CCCCC3)cc2s1 [Compound 97] | 14.7 µM |
